{"source": "patent US9150582B2", "about": "“Composition and method for neuropeptide S receptor (NPSR) antagonists” (RESEARCH TRIANGLE INSTITUTE, priority 2011, dated 2015)", "origin": "cited, not measured here", "key": {"NPSR Ile^107 variant": {"target": "T1, NPSR Ile^107 variant (Homo sapiens, UniProt Q6W5P4, N107I)", "T1 sequence (Q6W5P4 1-371 N107I)": "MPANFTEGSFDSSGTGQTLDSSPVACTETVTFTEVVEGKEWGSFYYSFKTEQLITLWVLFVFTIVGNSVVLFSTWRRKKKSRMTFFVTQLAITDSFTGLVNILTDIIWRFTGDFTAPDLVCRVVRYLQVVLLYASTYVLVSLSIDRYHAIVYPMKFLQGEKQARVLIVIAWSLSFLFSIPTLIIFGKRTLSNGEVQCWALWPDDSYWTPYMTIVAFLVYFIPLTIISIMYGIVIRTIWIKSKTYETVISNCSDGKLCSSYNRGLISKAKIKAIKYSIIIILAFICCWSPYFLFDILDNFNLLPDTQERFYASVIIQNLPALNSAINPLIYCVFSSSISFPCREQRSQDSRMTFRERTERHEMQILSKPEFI", "details": "calcium flux"}, "NPSR-C0Alt": {"target": "T2, NPSR-C0Alt (Homo sapiens, UniProt Q6W5P4)", "T2 sequence (Q6W5P4 1-377 isoform Q6W5P4-4)": "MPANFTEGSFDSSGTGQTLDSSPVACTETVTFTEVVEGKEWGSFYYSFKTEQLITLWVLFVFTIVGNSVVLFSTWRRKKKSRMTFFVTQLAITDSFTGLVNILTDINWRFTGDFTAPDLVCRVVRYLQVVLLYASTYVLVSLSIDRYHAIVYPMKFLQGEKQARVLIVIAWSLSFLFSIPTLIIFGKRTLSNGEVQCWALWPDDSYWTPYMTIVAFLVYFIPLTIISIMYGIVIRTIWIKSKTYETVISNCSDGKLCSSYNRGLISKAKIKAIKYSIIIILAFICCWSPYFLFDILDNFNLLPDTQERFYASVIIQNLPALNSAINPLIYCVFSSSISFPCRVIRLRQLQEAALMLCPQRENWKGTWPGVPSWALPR", "details": "functional assay"}, "mice [1]": {"tested_on": "mice", "details": "i.c.v., habituated and naive mice"}, "mice [2]": {"tested_on": "mice", "details": "elevated plus maze, light dark box, marble burying"}, "mice [3]": {"tested_on": "mice", "details": "0.1 nMol NPS"}, "mice [4]": {"tested_on": "mice", "details": "i.c.v."}, "[5]": {"details": "i.c.v."}, "mice [6]": {"tested_on": "mice"}, "[7]": {"tested_on": "basolateral amygdala (BLA)", "details": "0.1 nM injected into BLA"}}, "note": "Entries after “also recorded” stand apart in the source; their conditions may differ.", "data": [{"substance": "NPS: Human Neuropeptide S, 20 residue peptide SFRNGVGTGMKKTSFQRAKS (SEQ ID NO: 1), agonist of NPSR (Human)", "values": [{"measurement": "enhancement in functional sensitivity, Ile107 variant over Asn107", "setting": "NPSR Ile^107 variant", "value": "five to ten fold enhancement"}, {"measurement": "potency at NPSR-C0Alt, lower versus the 107I variant", "setting": "NPSR-C0Alt", "value": 30, "unit": "fold"}, {"measurement": "locomotor activity", "setting": "mice [1]", "value": "increased locomotor activity; also recorded: increase in locomotor activity"}, {"measurement": "anxiolytic-like behaviors", "setting": "mice [2]", "value": "anxiolytic-like behaviors"}, {"measurement": "amount of stage 1 and 2 slow wave sleep and REM sleep", "setting": "mice [3]; compared to saline", "value": "significantly reduced"}, {"measurement": "first hour of wakefulness", "setting": "mice [3]; mice, saline 45%", "value": 69, "unit": "%"}, {"measurement": "formerly extinguished cocaine seeking behaviors", "setting": "mice [4]", "value": "dose-dependently increased"}, {"measurement": "performance in novel recognition assays", "setting": "[5]", "value": "dose-dependently improves performance"}, {"measurement": "fear response (freezing behavior), administration pre-testing", "setting": "mice [6]; NPS given pre-testing", "value": "decreased the fear response"}, {"measurement": "fear response, administration pre-training", "setting": "mice [6]; NPS given pre-training", "value": "no effect on fear response"}, {"measurement": "anxiolytic activity at low dose", "setting": "[7]", "value": "No anxiolytic activity was observed"}, {"measurement": "contextual fear memories", "setting": "[7]", "value": "significantly reduced contextual fear memories"}]}]}
